The source of these data is PMC7145423, “Cooperative enzymatic control of N-acyl amino acids by PM20D1 and FAAH” (eLife, 2020).

Each structure is given as a SMILES string.

What all share (type): biochemical
Assay [1] has as its target T1, FAAH-flag (Mus musculus, UniProt O08914).
T1 construct: C-terminal flag tag, transient transfection in HEK293T, cell lysate
T1 sequence (O08914 1-579): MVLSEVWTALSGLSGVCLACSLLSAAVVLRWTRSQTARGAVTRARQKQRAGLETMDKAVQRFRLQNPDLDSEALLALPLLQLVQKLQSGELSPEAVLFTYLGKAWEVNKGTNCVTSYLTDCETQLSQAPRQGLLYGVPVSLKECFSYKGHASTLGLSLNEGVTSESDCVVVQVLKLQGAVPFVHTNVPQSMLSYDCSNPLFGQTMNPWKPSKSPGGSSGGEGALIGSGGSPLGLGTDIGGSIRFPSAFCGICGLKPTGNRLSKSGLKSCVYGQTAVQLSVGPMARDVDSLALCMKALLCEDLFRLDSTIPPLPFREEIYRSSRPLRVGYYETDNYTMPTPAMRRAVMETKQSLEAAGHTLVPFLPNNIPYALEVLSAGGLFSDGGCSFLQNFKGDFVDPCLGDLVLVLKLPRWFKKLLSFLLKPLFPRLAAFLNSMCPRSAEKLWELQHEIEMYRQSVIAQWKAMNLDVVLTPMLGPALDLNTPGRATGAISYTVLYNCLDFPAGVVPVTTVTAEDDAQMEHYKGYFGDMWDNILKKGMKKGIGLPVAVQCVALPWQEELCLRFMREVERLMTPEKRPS
In words: hydrolysis, LC-MS. As to conditions: 100 µM substrate, 100 µg lysate protein, PBS, 1 hr 37°C.

Assay [2] addresses T2, PM20D1-flag (Mus musculus, UniProt Q8C165).
T2 construct: flag-tagged, secreted, conditioned medium of transfected HEK293T cells
T2 sequence (Q8C165 25-503): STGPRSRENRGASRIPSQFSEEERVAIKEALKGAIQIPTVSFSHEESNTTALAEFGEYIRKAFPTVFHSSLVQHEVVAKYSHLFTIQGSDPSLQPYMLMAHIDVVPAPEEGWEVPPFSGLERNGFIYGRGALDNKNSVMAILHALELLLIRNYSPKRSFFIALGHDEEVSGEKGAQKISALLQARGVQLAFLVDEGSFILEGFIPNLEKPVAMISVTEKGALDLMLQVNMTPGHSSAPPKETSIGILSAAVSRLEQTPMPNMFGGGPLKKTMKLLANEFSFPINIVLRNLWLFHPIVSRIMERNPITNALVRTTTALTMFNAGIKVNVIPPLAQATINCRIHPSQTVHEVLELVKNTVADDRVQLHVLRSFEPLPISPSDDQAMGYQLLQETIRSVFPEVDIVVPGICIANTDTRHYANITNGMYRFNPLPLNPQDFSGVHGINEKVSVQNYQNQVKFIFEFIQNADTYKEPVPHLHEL
In words: condensation with amino acid (synthase direction), LC-MS. As to conditions: co-substrates Gly, Ser or Phe; PBS, 1 hr 37°C.

Assay [3] deals with T2, PM20D1-flag. Nature of the assay: hydrolysis, LC-MS. As to conditions: 100 µM substrate, 100 µg conditioned medium protein, PBS, 1 hr 37°C.

With `CCCCC/C=C\C/C=C\C/C=C\C/C=C\CCCC(=O)NCCO` [anandamide], the “hydrolysis, LC-MS” value in assay [1] is “FAAH showed robust hydrolysis activity with anandamide as a substrate”.

Regarding `CCCCC/C=C\C/C=C\C/C=C\C/C=C\CCCC(=O)N[C@@H](CO)C(=O)O` [C20:4-Ser], the “hydrolysis, LC-MS” value in assay [1] is reported as “A strong preference was observed for C20:4-Ser over the other three N-acyl amino acid substrates”.

`CCCCC/C=C\C/C=C\C/C=C\C/C=C\CCCC(=O)O` [arachidonic acid]: the “condensation with amino acid (synthase direction), LC-MS” value in assay [2] is “PM20D1 also efficiently catalyzed the condensation of arachidonic acid with all three”.

For `CCCCC/C=C\C/C=C\C/C=C\C/C=C\CCCC(=O)NCC(=O)O` [C20:4-Gly], the “hydrolysis, LC-MS” value in assay [3] was “PM20D1 exhibited robust hydrolysis activity only on C20:4-Gly”.
